Assay results published in ChEMBL document CHEMBL1201862, “PubChem BioAssay data set” (2004).
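Values below derive from 48-hour exposures of cells grown in 96-well plates, with endpoints linearly interpolated between the two concentrations bracketing the appropriate inhibition level. GI50: concentration for 50% inhibition of growth.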 Activity calls are given as the source filed them. Rule as the data show it: active = GI50 up to about 1.1 µM and inactive = higher.

Key:
Test in all cases: growth of human tumour cells (NCI), 48 h
A549 = tested on: A549
HL-60 = tested on: HL-60
SF-268 = tested on: SF-268
U-251 = tested on: U-251
M14 = tested on: M14
NCI-H226 = tested on: NCI-H226
SK-MEL-5 = tested on: SK-MEL-5
TK-10 = tested on: TK-10
OVCAR-4 = tested on: OVCAR-4
K562 = tested on: K562
SK-OV-3 = tested on: SK-OV-3
OVCAR-5 = tested on: OVCAR-5
NCI-H522 = tested on: NCI-H522
ACHN = tested on: ACHN
CAKI-1 = tested on: CAKI-1
HT-29 = tested on: HT-29
MOLT-4 = tested on: MOLT-4

Measured: GI50

COc1cc2c(cc1OC)C(Cc1cc(Br)c(OC)c(OC)c1)=[N+](C)CC2
inactive: A549 34.8 µM | HL-60 36 µM | SF-268 > 100 µM | U-251 8.17 µM | M14 69.8 µM | NCI-H226 31.6 µM | SK-MEL-5 19.2 µM | TK-10 59.6 µM | OVCAR-4 19.2 µM | K562 18.8 µM | SK-OV-3 > 100 µM | OVCAR-5 45.1 µM | NCI-H522 22.8 µM | ACHN 90.4 µM | CAKI-1 > 100 µM | HT-29 33.2 µM

O=c1[nH]c(-c2ccccc2)nc2ccc(Cl)cc12
inactive: A549 > 100 µM | SF-268 28 µM | U-251 > 100 µM | MOLT-4 34 µM | NCI-H226 > 100 µM | TK-10 35.2 µM | OVCAR-4 30.3 µM | K562 26.9 µM | OVCAR-5 > 100 µM | NCI-H522 20.5 µM | ACHN 73.1 µM | CAKI-1 20.9 µM | HT-29 36.8 µM

COc1cc(-c2nccc3cc(OC)c(OC)cc23)ccc1O
inactive: A549 > 100 µM | HL-60 17.7 µM | U-251 70.6 µM | MOLT-4 29.2 µM | M14 45.9 µM | NCI-H226 > 100 µM | SK-MEL-5 32.6 µM | TK-10 42 µM | OVCAR-4 68.4 µM | K562 40.8 µM | SK-OV-3 68.2 µM | OVCAR-5 34.9 µM | NCI-H522 35.8 µM | ACHN 44.9 µM | CAKI-1 21.3 µM | HT-29 30.8 µM

Cn1c(=O)c(/N=N/c2c(=O)n(C)c(=O)n3c2[nH]c2ccccc23)c2[nH]c3ccccc3n2c1=O
inactive: A549 92.7 µM | HL-60 > 100 µM | SF-268 46.2 µM | U-251 22.4 µM | M14 > 100 µM | NCI-H226 36.3 µM | SK-MEL-5 > 100 µM | TK-10 50.8 µM | OVCAR-4 > 100 µM | K562 > 100 µM | SK-OV-3 > 100 µM | OVCAR-5 > 100 µM | NCI-H522 66.5 µM | ACHN 80.9 µM | CAKI-1 > 100 µM | HT-29 > 100 µM

Fc1ccccc1C1CC(c2ccc3ccccc3c2)=Nc2ccccc2S1 (stereo not given)
inactive: A549 > 100 µM | HL-60 > 100 µM | SF-268 > 100 µM | U-251 > 100 µM | MOLT-4 > 100 µM | M14 > 100 µM | NCI-H226 > 100 µM | TK-10 > 100 µM | OVCAR-4 > 100 µM | K562 > 10 µM | SK-OV-3 > 100 µM | OVCAR-5 > 100 µM | NCI-H522 > 100 µM | ACHN > 100 µM | CAKI-1 > 100 µM | HT-29 > 100 µM

OCC(O)C(O)C(O)C(O)c1nnn[nH]1 (stereo not given)
inactive: A549 > 100 µM | HL-60 > 100 µM | SF-268 > 100 µM | U-251 > 100 µM | MOLT-4 > 100 µM | M14 > 100 µM | NCI-H226 > 100 µM | SK-MEL-5 78.9 µM | OVCAR-4 > 100 µM | K562 > 100 µM | SK-OV-3 > 100 µM | OVCAR-5 > 100 µM | NCI-H522 > 100 µM | ACHN > 100 µM | CAKI-1 > 100 µM | HT-29 > 100 µM

COCCCNC(=O)C1C(=O)N(CCCOC)C(=O)/C1=N\N (stereo not given)
inactive: A549 > 100 µM | HL-60 > 100 µM | SF-268 > 100 µM | U-251 > 100 µM | MOLT-4 > 100 µM | M14 > 100 µM | SK-MEL-5 > 100 µM | TK-10 > 100 µM | OVCAR-4 > 100 µM | K562 > 100 µM | OVCAR-5 > 100 µM | NCI-H522 > 100 µM | ACHN > 100 µM | HT-29 > 100 µM

[O-][Cl+3]([O-])([O-])[O-].c1ccc(C[P+]2(c3ccccc3)CCCCC2)cc1
inactive: A549 > 100 µM | HL-60 29.4 µM | U-251 38.4 µM | MOLT-4 > 100 µM | M14 > 100 µM | NCI-H226 > 100 µM | SK-MEL-5 28.7 µM | TK-10 > 100 µM | OVCAR-4 > 100 µM | K562 > 100 µM | SK-OV-3 > 100 µM | OVCAR-5 > 100 µM | NCI-H522 34.5 µM | ACHN > 100 µM | HT-29 72.8 µM

NCCCNCc1c2ccccc2c(CNCCCN)c2ccccc12
inactive: A549 19.2 µM | HL-60 14.4 µM | SF-268 5.12 µM | U-251 33.4 µM | MOLT-4 12 µM | M14 > 10 µM | SK-MEL-5 27.1 µM | TK-10 32.5 µM | OVCAR-4 11.1 µM | K562 13.6 µM | OVCAR-5 21.3 µM | NCI-H522 5.96 µM | ACHN 26.7 µM | CAKI-1 30.5 µM | HT-29 18.2 µM

Cc1ccc(NC(=O)c2cc3cc(/N=N/c4ccccc4C(=O)O)ccc3oc2=O)cc1
inactive: A549 40.9 µM | HL-60 26.7 µM | U-251 43.2 µM | MOLT-4 32.2 µM | M14 55.3 µM | NCI-H226 39.4 µM | SK-MEL-5 28.5 µM | TK-10 58.9 µM | K562 39.2 µM | SK-OV-3 74 µM | NCI-H522 30.1 µM | ACHN 53.2 µM | HT-29 38.5 µM

COc1cc(Br)c(/C=N\c2cccc3ccc(OS(=O)(=O)c4ccc([N+](=O)[O-])cc4)cc23)cc1OC
inactive: A549 33.7 µM | SF-268 > 100 µM | U-251 > 100 µM | MOLT-4 > 100 µM | NCI-H226 > 100 µM | SK-MEL-5 13.8 µM | OVCAR-4 > 100 µM | SK-OV-3 > 100 µM | OVCAR-5 > 100 µM | NCI-H522 48 µM | ACHN 12.4 µM | CAKI-1 6.19 µM | HT-29 > 100 µM

O=C(Nc1cccc(C(F)(F)F)c1)C(=O)C1NC(=S)NC1=O (stereo not given)
inactive: A549 > 100 µM | HL-60 > 100 µM | SF-268 > 100 µM | MOLT-4 > 100 µM | M14 > 100 µM | NCI-H226 > 100 µM | SK-MEL-5 > 100 µM | TK-10 > 100 µM | OVCAR-4 > 100 µM | K562 71.1 µM | SK-OV-3 > 100 µM | OVCAR-5 > 100 µM | ACHN > 100 µM | CAKI-1 > 100 µM | HT-29 61.9 µM

CC(O)C(C(=O)O)N(CC1(O)OCC(O)C(O)C1O)N=O (stereo not given)
inactive: A549 > 100 µM | HL-60 > 100 µM | U-251 > 100 µM | MOLT-4 > 100 µM | M14 > 100 µM | TK-10 > 100 µM | K562 > 100 µM | SK-OV-3 > 100 µM | OVCAR-5 > 100 µM | NCI-H522 > 100 µM | ACHN > 100 µM | HT-29 > 100 µM
